Consider 4 compounds from article PMC8780828 (Viruses, 2021).

Where two headings read alike, the source gives them in different places.

The test system of data set [1] is pseudovirus NL4-3ΔEnv-NanoLuc/SARS-CoV-2. In words: organism not typed. The conditions noted are these: HT-1080; n=3. Format: cell-based.
Data set [2] shares this test system. In words: SARS-CoV-2 pseudovirus assay with pre-treated 293T/ACE2 cells. The conditions noted are these: 293T/ACE2 cells pre-treated with compound 30 min before infection. Type of data set: cell-based.
For data set [3], the system named is SARS-CoV-2 (US_WA-1/2020). Format: cell-based.
Data set [4] concerns pseudovirus NL4-3ΔEnv-NanoLuc/MERS-CoV. The data set can be described thus: microbe, parasite or virus in culture. Type of data set: cell-based. To be noted: Middle East respiratory syndrome-related coronavirus, MRC5.
Data set [5] deals with Trypsin. Format: biochemical.
The test system of data set [6] is pseudovirus NL4-3ΔEnv-NanoLuc/SARS-CoV. The data set can be described thus: microbe, parasite or virus in culture. The conditions noted are these: Severe acute respiratory syndrome coronavirus, A549-ACE2. Type of data set: cell-based.
Data set [7] deals with SARS-CoV-2 spike S1 subunit protein (Severe acute respiratory syndrome coronavirus 2, UniProt P0DTC2). Format: binding.
For data set [8], the system named is control pseudovirus NL4-3.Luc.R-E-/A-MLV. In words: Control pseudovirus A-MLV assay in 293T/ACE2 cells. Type of data set: cell-based, amphotropic murine leukemia virus (A-MLV). The conditions noted are these: NL43, 293T/ACE2.
Data set [9] concerns pseudovirus NL4-3ΔEnv-NanoLuc/SARS-CoV-2. In words: organism not typed. Format: cell-based. The conditions noted are these: A549-ACE2; n=3.
Data set [10] has as its system pseudovirus NL4-3ΔEnv-NanoLuc/SARS-CoV. The data set can be described thus: microbe, parasite or virus in culture. Format: cell-based. The conditions noted are these: Severe acute respiratory syndrome coronavirus, HT-1080.
Data set [11] relates to NL4-3ΔEnv-NanoLuc/SARS-CoV-2. In words: organism not typed. Type of data set: cell-based.
Data set [12] has as its target β-lactamase. Type of data set: biochemical.
Data set [13] can be described thus: in vivo. The conditions noted are these: female, Sprague Dawley, rat; for MRT inf: MRT0-inf_obs.
In data set [14] the test system is pseudovirus NL4-3ΔEnv-NanoLuc/MERS-CoV. In words: microbe, parasite or virus in culture. Type of data set: cell-based. To be noted: Middle East respiratory syndrome-related coronavirus, Huh-7.
The conditions of data set [15]: rat, in vivo.
Data set [16] deals with malate dehydrogenase (MDH). Type of data set: biochemical.
Data set [17] has as its target FLuc (Photinus pyralis, UniProt P08659). Type of data set: biochemical.
Data set [18] deals with SARS-CoV-2. The conditions noted are these: Vero E6 cells; NLuc-based assay; cited from earlier work.
Data set [19] relates to SARS-CoV-2. The conditions noted are these: A549-hACE2 cells; NLuc-based assay; cited from earlier work.
A short description of data set [20]: in vitro. To be noted: human, Caco-2, A-to-B Papp (cell batch quality control).
Where [21] appears, read: female, Sprague Dawley, iv, 5 mg/kg.

FLuc, sequence (P08659 whole entry): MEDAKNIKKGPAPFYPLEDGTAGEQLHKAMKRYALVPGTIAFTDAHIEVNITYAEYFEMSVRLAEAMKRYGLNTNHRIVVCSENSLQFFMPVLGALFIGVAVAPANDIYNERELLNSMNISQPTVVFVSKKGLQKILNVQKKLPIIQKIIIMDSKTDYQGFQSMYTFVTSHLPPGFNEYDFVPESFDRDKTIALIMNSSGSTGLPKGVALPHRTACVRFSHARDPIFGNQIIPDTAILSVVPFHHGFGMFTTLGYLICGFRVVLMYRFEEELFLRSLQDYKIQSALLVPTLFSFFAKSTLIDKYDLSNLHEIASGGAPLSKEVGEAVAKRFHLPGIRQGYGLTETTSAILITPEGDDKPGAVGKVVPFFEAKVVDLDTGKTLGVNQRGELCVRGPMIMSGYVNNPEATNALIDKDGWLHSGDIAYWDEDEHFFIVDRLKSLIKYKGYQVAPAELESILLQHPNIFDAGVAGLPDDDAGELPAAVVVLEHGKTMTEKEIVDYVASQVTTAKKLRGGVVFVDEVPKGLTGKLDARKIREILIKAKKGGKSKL

On to `O=C(O)c1cccc(-c2ccc(/C=C3\SC(=S)N(CCc4ccccc4)C3=O)o2)c1` [NBCoV2], for which the concentration for half-maximal inhibition (IC50) in data set [1] was 25.3 ± 0.6 nM; in data set [2], over 2000 nM; in data set [4] it was 77 nM; in data set [5], over 2000 nM; in data set [6], 111 ± 9 nM; in [8], 783 ± 76 nM. Further, the concentration for half-maximal inhibition (IC50) is 58 ± 1.7 nM in data set [9]; 19.3 ± 1.1 nM in data set [10]; 22.8 to 58 nM in [11] (read-out: IC50 (range over the three cell lines)); over 2000 nM in data set [12]; 112 ± 7 nM in data set [14]; over 2000 nM in data set [16]. Besides, in [3], the IC100 is given as over 10 µM. Also, the kd in data set [7] is 0.0251 s⁻¹. In [11], the “IC100 (range of IC100 values detected in the three cell lines)” value lay within 0.3 to 1 µM. The compound further returned a bioavailability in data set [13] (F% (bioavailability)) of 0.9%. Moreover, in data set [13] (iv, 5 mg/kg), the C0 came to 1710 ng/mL. The time of peak concentration (Tmax) was 2 h in data set [13] (iv, 5 mg/kg) and 4 h in data set [13] (po, 10 mg/kg). Also, the Cmax in [13] (iv, 5 mg/kg) was 2220 ng/mL; in data set [13] (po, 10 mg/kg), 30.1 ng/mL. Besides, the mean residence time MRT inf in data set [13] (iv, 5 mg/kg) was found to be 5.09 h; in [13] (po, 10 mg/kg), 7.28 h. The half-life was 3.52 h in [13] (iv, 5 mg/kg, t1/2); 3.96 h in [13] (po, 10 mg/kg, t1/2); 3.5 to 3.9 h in data set [13] (t1/2 (range PO and IV)). In [15] (setting [21]), the CLobs is given as 0.00027 (mg/kg)/(ng/mL)/h. In addition, the Vss_obs in data set [15] (setting [21]) is on record as 0.0014 (mg/kg)/(ng/mL). The AUC0-t in [15] (iv, 5 mg/kg) is given as 18,074.45 ng/mL ∗ h; in [15] (po, 10 mg/kg) it was 318.78 ng/mL ∗ h. Besides, the Vz/F_obs in data set [15] (po, 10 mg/kg) is listed as 0.1759 (mg/kg)/(ng/mL).
Regarding `Oc1ccc(/C=C/c2cc(O)cc(O)c2)cc1` [resveratrol], the “effect on FLuc activity” value in data set [17] was “completely blocked”.
Regarding `CCC(CC)COC(=O)[C@H](C)N[P@](=O)(OC[C@H]1O[C@@](C#N)(c2ccc3c(N)ncnn23)[C@H](O)[C@@H]1O)Oc1ccccc1` [remdesivir], the figures for the antiviral potency in data set [18] and in [19] were 1280 nM and 115 nM, respectively.
In data set [20], `C[C@H]1O[C@@H](O[C@H]2[C@@H](O)C[C@H](O[C@H]3[C@@H](O)C[C@H](O[C@H]4CC[C@@]5(C)[C@H](CC[C@@H]6[C@@H]5C[C@@H](O)[C@]5(C)[C@@H](C7=CC(=O)OC7)CC[C@]65O)C4)O[C@@H]3C)O[C@@H]2C)C[C@H](O)[C@@H]1O` [Digoxin, reference compound] yielded a Papp A→B of 0.34 ×10⁻⁶ cm/s.
